One block for each compound: values may come before it. The source made the active and inactive calls.
Legend:
[1] = biological target: T1, Apoptotic protease-activating factor 1 (Homo sapiens, UniProt O14727); test: SAR analysis of small molecule Activators of Apaf-1 in a Fluorescent assay.; type: functional; settings: read-out: EC50_Mean
T1 sequence (O14727 whole entry): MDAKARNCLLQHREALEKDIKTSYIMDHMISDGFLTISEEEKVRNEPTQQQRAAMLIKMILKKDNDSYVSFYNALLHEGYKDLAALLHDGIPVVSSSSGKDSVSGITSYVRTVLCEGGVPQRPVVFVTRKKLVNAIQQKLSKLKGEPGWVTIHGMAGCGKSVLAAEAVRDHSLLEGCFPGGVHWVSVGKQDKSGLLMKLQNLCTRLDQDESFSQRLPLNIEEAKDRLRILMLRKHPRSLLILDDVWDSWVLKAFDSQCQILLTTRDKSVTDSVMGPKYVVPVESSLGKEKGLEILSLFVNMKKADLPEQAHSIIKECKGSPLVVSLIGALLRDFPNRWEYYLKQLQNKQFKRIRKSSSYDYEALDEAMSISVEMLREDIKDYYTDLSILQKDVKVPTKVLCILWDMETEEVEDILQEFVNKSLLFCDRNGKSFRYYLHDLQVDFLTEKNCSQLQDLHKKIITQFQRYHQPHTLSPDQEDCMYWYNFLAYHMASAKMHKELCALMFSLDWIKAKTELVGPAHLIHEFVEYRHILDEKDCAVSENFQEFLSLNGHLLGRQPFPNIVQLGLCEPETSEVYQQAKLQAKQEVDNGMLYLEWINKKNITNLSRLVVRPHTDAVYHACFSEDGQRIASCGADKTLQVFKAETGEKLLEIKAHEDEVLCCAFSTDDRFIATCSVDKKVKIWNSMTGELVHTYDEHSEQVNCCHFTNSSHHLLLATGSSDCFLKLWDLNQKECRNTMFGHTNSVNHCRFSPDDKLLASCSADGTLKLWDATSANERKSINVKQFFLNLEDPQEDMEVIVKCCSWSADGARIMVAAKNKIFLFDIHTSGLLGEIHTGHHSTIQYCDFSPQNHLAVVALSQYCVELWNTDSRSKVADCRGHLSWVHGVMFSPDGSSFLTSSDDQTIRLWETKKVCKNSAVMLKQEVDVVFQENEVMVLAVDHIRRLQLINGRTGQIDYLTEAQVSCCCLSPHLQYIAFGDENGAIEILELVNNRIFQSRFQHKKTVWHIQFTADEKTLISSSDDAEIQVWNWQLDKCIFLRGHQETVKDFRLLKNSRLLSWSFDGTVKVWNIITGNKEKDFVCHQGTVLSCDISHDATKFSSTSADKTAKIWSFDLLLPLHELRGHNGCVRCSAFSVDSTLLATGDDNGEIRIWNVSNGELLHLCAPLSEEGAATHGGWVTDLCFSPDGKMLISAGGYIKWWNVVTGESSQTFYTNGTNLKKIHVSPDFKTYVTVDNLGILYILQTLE

[2] = biological target: Ras and Rab interactor 1/Tyrosine-protein kinase ABL1 (Homo sapiens, UniProt P00519+Q13671); type: functional;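 also: biochemical TR-FRET dose-response test measuring inhibition of binding between Rin1 and Abl proteins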
Ras and Rab interactor 1/Tyrosine-protein kinase ABL1, sequence (P00519 whole entry, the tested form may be a part): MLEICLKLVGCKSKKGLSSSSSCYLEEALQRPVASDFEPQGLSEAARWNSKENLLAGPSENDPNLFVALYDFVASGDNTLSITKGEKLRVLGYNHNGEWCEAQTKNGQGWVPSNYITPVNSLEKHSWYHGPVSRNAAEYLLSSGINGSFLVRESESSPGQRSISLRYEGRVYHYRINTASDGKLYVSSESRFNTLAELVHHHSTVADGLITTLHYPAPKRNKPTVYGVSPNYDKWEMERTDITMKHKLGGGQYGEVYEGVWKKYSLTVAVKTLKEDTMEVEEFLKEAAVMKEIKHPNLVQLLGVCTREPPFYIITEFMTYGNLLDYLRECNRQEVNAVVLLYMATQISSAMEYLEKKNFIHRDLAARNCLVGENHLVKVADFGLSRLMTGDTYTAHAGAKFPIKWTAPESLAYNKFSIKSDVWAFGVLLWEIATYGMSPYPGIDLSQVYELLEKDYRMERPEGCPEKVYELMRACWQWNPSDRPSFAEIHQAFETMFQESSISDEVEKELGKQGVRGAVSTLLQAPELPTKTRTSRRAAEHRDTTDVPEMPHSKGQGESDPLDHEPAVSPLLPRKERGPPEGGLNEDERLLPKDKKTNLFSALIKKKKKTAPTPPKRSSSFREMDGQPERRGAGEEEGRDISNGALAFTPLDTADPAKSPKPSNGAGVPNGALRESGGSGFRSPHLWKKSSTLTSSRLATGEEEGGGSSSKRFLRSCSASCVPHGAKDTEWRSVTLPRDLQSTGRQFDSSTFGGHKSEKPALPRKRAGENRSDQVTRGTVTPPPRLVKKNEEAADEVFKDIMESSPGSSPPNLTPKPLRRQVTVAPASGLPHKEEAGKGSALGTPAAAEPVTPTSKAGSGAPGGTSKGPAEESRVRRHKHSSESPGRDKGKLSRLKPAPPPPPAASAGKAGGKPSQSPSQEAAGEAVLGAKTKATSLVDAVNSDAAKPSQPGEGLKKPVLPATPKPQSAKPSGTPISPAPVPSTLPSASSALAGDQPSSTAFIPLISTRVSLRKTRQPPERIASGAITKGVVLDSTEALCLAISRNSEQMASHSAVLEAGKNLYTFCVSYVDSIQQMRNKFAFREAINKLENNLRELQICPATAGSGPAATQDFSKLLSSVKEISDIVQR
Ras and Rab interactor 1/Tyrosine-protein kinase ABL1, sequence (Q13671 whole entry, the tested form may be a part): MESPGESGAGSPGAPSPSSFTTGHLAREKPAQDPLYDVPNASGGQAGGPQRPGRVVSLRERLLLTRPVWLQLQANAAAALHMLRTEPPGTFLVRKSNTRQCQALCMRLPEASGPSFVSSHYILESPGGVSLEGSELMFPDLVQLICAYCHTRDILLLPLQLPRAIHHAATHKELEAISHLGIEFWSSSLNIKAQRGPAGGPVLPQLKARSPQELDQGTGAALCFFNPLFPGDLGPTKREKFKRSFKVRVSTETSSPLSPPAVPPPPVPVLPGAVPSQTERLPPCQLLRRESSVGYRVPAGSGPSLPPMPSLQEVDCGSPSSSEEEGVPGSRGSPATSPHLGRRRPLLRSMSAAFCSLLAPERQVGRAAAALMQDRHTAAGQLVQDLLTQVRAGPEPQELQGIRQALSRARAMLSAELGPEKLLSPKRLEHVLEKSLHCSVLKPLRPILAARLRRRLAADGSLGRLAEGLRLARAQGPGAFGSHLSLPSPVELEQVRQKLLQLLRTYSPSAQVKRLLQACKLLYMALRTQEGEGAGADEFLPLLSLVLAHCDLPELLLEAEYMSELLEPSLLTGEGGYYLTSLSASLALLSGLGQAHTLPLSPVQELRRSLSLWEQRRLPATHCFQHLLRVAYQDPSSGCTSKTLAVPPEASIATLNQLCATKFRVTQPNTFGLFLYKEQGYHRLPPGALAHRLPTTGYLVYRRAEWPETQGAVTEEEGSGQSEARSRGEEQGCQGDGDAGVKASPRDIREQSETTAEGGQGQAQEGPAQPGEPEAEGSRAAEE

[3] = biological target: Hepatocyte nuclear factor 4-alpha (Homo sapiens, UniProt P41235); type: functional, cell-based;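 also: biochemical luminescence-based dose-response counterscreen measuring inhibition of HNF4 dimerization, run alongside a screen for blockers of ABHD5–perilipin-5 interaction; split luciferase complementation of HNF4 fusion proteins in cell lysate measuring dimerization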
Hepatocyte nuclear factor 4-alpha, sequence (P41235 whole entry, the tested form may be a part): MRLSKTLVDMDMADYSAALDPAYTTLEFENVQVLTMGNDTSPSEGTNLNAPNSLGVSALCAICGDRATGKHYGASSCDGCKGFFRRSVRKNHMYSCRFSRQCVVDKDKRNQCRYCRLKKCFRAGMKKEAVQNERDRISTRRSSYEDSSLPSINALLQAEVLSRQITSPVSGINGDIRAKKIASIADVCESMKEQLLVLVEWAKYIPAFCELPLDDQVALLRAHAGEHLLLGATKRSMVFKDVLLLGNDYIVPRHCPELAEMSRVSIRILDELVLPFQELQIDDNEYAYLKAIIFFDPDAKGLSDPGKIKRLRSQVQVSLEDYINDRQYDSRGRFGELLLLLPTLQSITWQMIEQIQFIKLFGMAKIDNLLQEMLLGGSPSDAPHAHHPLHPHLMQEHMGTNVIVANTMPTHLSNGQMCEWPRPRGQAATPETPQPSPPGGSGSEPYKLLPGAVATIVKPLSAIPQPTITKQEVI

[4] = growth suppression of beta-catenin-knockout colon cells, dose response, cell-based, HCT116, human colon tumor (AID 1045); type: functional;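 also: HCT116 colon tumor cells with beta catenin knocked out; cells exposed to compound for 60 hours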
[5] = growth suppression of PTEN-null colon cells, dose response, cell-based, HCT116 PTEN knockout (AID 1047); type: functional;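 also: HCT116 colon tumor cells with PTEN knocked out; cells exposed to compound for 60 hours before readout; potency for loss of cell viability measured by luminescence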
[6] = biological target: T2, Carboxy-terminal domain RNA polymerase II polypeptide A small phosphatase 1 (Homo sapiens, UniProt Q9GZU7); test: inhibitors of CTDSP1, concentration-response testing, biochemical assay, absorbance-based, actives from ultra-high-throughput screening (AID 540297); type: functional
T2 sequence (Q9GZU7 whole entry): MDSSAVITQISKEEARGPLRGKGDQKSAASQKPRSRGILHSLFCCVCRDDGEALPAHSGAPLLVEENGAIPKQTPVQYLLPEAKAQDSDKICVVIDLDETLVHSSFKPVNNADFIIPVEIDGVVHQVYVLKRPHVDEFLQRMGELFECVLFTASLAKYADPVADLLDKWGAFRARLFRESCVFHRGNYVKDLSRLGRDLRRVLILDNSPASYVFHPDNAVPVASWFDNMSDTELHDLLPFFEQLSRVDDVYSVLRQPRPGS

[7] = biological target: T3, Low molecular weight phosphotyrosine protein phosphatase (Homo sapiens, UniProt P24666); type: functional; settings: read-out: IC50_Mean
T3 sequence (P24666 whole entry): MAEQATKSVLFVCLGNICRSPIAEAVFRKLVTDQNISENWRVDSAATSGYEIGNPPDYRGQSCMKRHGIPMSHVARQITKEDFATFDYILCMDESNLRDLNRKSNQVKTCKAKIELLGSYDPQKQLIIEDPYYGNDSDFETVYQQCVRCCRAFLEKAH

[8] = biological target: T3, Low molecular weight phosphotyrosine protein phosphatase; type: functional; settings: read-out: IC50_Mean; remark: listed apart in the source
HEK293 [9] = test: cells; type: functional, cell-based; settings: Homo sapiens
HEK293 [10] = test: cells; type: functional, cell-based; settings: Homo sapiens; remark: listed apart in the source
HEK293 [11] = test: cells; type: functional, cell-based; settings: Homo sapiens; remark: listed apart in the source
[12] = biological target: T1, Apoptotic protease-activating factor 1; type: functional
HEK293 [13] = test: NOD1 signaling inhibitors, primary screen, cell-based, luminescence, uHTS (AID 1578); type: functional; settings: Homo sapiens
[14] = biological target: Nucleotide-binding oligomerization domain-containing protein 2 (Homo sapiens, UniProt Q9HC29); test: NOD2 signaling inhibitors, cell-based, luminescence, uHTS, HEK293 (AID 1566); type: functional
Nucleotide-binding oligomerization domain-containing protein 2, sequence (Q9HC29 whole entry, the tested form may be a part): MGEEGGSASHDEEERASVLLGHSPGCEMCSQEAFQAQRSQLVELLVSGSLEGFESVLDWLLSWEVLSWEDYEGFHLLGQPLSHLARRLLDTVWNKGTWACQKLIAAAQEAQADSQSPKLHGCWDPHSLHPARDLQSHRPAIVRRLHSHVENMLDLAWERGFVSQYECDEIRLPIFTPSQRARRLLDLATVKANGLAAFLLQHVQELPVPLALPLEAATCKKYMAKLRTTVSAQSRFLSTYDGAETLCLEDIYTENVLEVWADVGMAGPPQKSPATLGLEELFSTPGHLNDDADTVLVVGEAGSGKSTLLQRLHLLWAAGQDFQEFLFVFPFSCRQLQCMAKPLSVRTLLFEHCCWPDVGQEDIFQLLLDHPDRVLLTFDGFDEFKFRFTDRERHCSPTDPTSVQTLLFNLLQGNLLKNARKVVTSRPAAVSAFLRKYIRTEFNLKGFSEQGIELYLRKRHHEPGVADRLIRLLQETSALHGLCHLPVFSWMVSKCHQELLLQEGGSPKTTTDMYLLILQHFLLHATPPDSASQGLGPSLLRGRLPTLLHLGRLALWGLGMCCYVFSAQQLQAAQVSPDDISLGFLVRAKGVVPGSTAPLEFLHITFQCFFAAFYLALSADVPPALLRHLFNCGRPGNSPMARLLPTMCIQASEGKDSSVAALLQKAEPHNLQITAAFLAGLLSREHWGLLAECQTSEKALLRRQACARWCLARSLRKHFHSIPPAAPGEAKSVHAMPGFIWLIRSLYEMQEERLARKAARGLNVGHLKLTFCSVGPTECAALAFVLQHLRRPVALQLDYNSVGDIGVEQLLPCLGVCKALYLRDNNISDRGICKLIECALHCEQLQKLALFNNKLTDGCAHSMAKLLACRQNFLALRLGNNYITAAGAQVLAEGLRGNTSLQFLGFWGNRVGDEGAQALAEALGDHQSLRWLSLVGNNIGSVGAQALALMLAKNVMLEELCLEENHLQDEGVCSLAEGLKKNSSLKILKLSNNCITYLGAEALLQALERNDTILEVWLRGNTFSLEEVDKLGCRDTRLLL

HEK293 [15] = test: NOD2 signaling inhibitors in MDP-stimulated cells, cell-based, uHTS, luminescence (AID 2001); type: functional; settings: Homo sapiens
[16] = ARNT/TACC3 interaction disruptors, potency, confirmation, biochemical, AlphaScreen, cherry-picked samples (AID 651703); type: functional, Homo sapiens;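 also: His-tagged ARNT PAS-B domain paired with GST-TACC3 E629A dimer coactivator fragment; potency of inhibitors that break up the complex and lower AlphaScreen signal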
[17] = biological target: T4, DNA repair and recombination protein RAD54-like (Homo sapiens, UniProt Q92698); test: inhibitors of human RAD54 branch migration, confirmation, biochemical, fluorescence, cherry-picked samples, dose series (AID 651657); type: functional
T4 sequence (Q92698 whole entry): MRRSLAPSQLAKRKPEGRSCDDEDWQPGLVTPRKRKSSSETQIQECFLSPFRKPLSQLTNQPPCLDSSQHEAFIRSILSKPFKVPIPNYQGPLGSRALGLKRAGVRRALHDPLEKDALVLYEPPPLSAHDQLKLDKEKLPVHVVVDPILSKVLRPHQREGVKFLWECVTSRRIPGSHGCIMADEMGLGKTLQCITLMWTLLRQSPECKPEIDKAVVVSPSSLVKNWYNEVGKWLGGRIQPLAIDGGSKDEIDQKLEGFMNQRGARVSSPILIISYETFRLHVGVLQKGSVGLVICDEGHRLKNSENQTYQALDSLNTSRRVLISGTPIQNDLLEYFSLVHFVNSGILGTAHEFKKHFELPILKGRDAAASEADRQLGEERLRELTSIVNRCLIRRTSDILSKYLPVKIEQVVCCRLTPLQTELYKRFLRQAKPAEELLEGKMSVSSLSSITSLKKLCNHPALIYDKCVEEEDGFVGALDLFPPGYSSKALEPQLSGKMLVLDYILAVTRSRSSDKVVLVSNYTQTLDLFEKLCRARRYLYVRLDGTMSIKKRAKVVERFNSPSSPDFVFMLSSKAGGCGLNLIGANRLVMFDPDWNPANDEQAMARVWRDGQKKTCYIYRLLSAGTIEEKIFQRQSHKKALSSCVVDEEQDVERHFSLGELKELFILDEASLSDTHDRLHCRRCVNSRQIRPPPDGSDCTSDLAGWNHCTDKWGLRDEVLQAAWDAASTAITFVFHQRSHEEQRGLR

HEK293 [18] = test: inhibitors of LMP1-driven NF-kB reporter, dose response, cell-based, HEK293, luciferase, cherry-pick (AID 588343); type: functional; settings: Homo sapiens
[19] = biological target: T5, Small ubiquitin-related modifier 1 (Homo sapiens, UniProt P63165); test: inhibitors of SUMO1 peptide binding, dose response, biochemical, fluorescence polarization, uHTS hits (AID 624382); type: functional; settings: read-out: IC50_Mean
T5 sequence (P63165 whole entry): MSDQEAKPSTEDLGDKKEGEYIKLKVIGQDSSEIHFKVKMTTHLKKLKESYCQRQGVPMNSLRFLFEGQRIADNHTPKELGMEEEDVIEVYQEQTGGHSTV

[20] = biological target: T5, Small ubiquitin-related modifier 1; test: inhibitors of SUMO1 partner interactions, dose response, biochemical, FRET (AID 624383); type: functional; settings: read-out: IC50_Mean
Bcl-2-related protein A1 = biological target: T6, Bcl-2-related protein A1 (Mus musculus, UniProt Q07440); type: functional;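 also: confirmatory dose–response counterscreen on Bfl-1, used to check hits from a UBC13 polyubiquitin inhibitor campaign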
T6 sequence (Q07440 whole entry): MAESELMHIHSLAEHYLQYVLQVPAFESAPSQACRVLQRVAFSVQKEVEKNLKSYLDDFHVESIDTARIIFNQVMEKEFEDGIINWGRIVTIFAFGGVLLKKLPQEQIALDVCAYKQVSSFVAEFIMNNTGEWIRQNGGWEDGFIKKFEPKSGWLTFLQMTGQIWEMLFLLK

INS1 = test: beta cell apoptosis inhibitors, cytokine rescue, dose response, luminescence, retest (AID 449756); type: functional, cell-based; settings: Rattus norvegicus;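 also: cell death triggered by IL-1 beta plus TNF-alpha plus IFN-gamma mixture; protective hits raise ATP signal compared with cytokine alone wells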
[21] = biological target: T7, Ubiquitin-conjugating enzyme E2 N (Homo sapiens, UniProt P61088); type: functional
T7 sequence (P61088 whole entry): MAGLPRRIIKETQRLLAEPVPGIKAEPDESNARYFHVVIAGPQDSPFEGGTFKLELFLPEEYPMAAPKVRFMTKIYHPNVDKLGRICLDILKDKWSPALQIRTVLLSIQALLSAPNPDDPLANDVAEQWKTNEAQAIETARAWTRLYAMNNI

[22] = control 3'UTR Renilla luciferase suppression, dose response, counter-screen for Shn3 inhibitor project, cell-based, Clone20-Shn3RL, cherry-picked (AID 624133); type: functional
[23] = HepG2 cell cytotoxicity, dose response, cytotoxicity control for Shn3 inhibitor project, CellTiter-Glo, cherry-picked (AID 624134); type: functional, cell-based
[24] = Shn3 3'UTR reporter inhibitors, dose response, cell-based, Clone20 osteoblasts, firefly luciferase, cherry-picked (AID 624132); type: functional;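 also: firefly luciferase luminescence from reporter carrying the Shn3 3'UTR in osteoblasts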
[25] = Luminescence Cell-Based Dose Retest to Confirm Inhibitors of Cancer Stem Cells. [Related pubchem assays (depositor defined):AID2717, AID2721]; type: functional; settings: Homo sapiens
[26] = biological target: T7, Ubiquitin-conjugating enzyme E2 N; type: functional; remark: listed apart in the source
Interleukin-8 = biological target: T8, Interleukin-8 (Homo sapiens, UniProt P10145); test: Dose Response confirmation of uHTS small molecule hits for cystic fibrosis induced NFkb Inhibitors in a PAF-induced IL8 counterscreen.; type: functional; settings: read-out: IC50_Mean
T8 sequence (P10145 whole entry): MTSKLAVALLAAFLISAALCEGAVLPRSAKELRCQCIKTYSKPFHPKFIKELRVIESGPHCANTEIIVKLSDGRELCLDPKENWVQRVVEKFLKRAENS

H9c2 = test: cells; type: functional, cell-based; settings: Rattus norvegicus, H9c2, Myocardium;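 also: confirmatory concentration-response retest of ultra-high-throughput screening hits for modulation of myocardial damage; cell death induced by hydrogen peroxide oxidative stress; compound pretreatment for 60 min then peroxide exposure for 2 h; potency is for protecting the cells against peroxide damage rather than for killing them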
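For EC50 Mean in this document: caspase-3 cleavage of fluorogenic Rh110 DEVD substrate downstream of apoptosome activation.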

EC50 [1]: > 100 µM (inactive)
Compound: COc1ccc(C2=NOC3(CC(=O)N(c4ccc(C)cc4)C3=O)C2)cc1 (configuration not stated)

IC50 [2]: 7.81 µM (active)
Compound: CCOC(=O)N1CCN(C(=O)Nc2ccc(NC(=O)N3CCN(C(=O)OCC)CC3)cc2)CC1

Compound: CC1=CC(C)(C)Nc2ccc(OC(=O)CN3C(=O)C4CCCCC4C3=O)cc21 (configuration not stated)
IC50 [3]: 4.53 µM (active) | EC50 [4]: 4.74 µM (active) | EC50 [5]: 7.23 µM (active)

IC50 [3]: 12.9 µM (inactive) | IC50 [6]: 6.25 µM (active)
Compound: CCCCn1c(SCC(=O)NCc2ccco2)nnc1-c1ccoc1C

IC50 [7]: 35 µM (inactive) | IC50 [8]: 31.5 µM (inactive) | IC50 [6]: 1.57 µM (active)
Compound: COc1ccc(NC(=O)/C(C#N)=C\c2ccc(OCc3ccc(C(=O)O)cc3)c(OC)c2)cc1

Compound: CCCCc1c(C)c(C#N)c2nc3ccccc3n2c1O
IC50 (HEK293 [9]): > 20 µM (inactive) | IC50 (HEK293 [10]): 13.1 µM (active) | IC50 (HEK293 [11]): > 20 µM (inactive) | IC50 [12]: 7.79 µM (active) | EC50 (HEK293 [13]): 4.1 µM (active) | EC50 [14]: 8.9 µM (active) | IC50 (HEK293 [15]): 10.8 µM (inactive)

Compound: O=C(NCCCn1ccnc1)c1cc2cc([N+](=O)[O-])ccc2oc1=O
AC50 [16]: 131 µM (active)

Compound: COc1ccc(C(=O)Nc2cc(C)c(NC(=O)c3ccccc3OC)cn2)cc1
AC50 [17]: 100 µM (inactive) | AC50 (HEK293 [18]): 169 µM (active) | IC50 [19]: > 66.6 µM (inactive) | IC50 [20]: 1.48 µM (active)

Compound: NC1=NC[C@@H](CC2CCCCC2)N1CCc1cc(C(F)(F)F)cc(C(F)(F)F)c1
IC50 (Bcl-2-related protein A1): > 20 µM (inactive) | AC50 (INS1): 7.06 µM (active) | IC50 [21]: 11.5 µM (active) | AC50 [22]: 24.8 µM (active) | IC50 [12]: 60.4 µM (active) | AC50 [23]: 14.7 µM (active) | AC50 [24]: 9.92 µM (active) | AC50 [25]: 3.19 µM (active) | IC50 [26]: 19.6 µM (active)

Compound: COc1ccc(CNc2nn3c(-c4cccc(C(=O)N(C)C)c4)cnc3s2)cc1
IC50 (Interleukin-8): 18 µM (inactive) | IC50 (H9c2): 42.1 µM (inactive)

EC50 [1]: > 100 µM (inactive)
Compound: CC(CNc1ccc(Oc2ccccc2)cc1)C(=O)O (configuration not stated)

IC50 [2]: 3.59 µM (active)
Compound: CCOC(=O)CCCCCC(=O)Nc1ccc2c(c1)C(=O)N([C@H](C)CO)C[C@@H](C)[C@@H](CN(C)C(=O)CCC(F)(F)F)OCCCC[C@H](C)O2

Compound: CC(=O)Nc1ccc(NC(=O)c2cc(-c3ccc(C)cc3O)n[nH]2)cc1
IC50 [19]: > 66.6 µM (inactive) | IC50 [20]: 13.3 µM (active)
